The source made the active and inactive calls. No rule for the calls is given here.
Legend:
Experiment in all cases: PubChem AID 651979
[1] = tested on: LYPLAL1; conditions: HEK293T SILAC ABPP, NHU5 probe, LC-MS/MS ratio, at 5 µM, active compounds read low
[2] = target: Acyl-protein thioesterase 2 (Homo sapiens) (UniProt O95372); conditions: HEK293T SILAC ABPP, NHU5 probe, LC-MS/MS ratio; LYPLA2; at 5 µM; active compounds read low
[3] = tested on: ABHD12; conditions: HEK293T SILAC ABPP, NHU5 probe, LC-MS/MS ratio, at 5 µM, active compounds read low
[4] = target: Protein phosphatase methylesterase 1 (Homo sapiens) (UniProt Q9Y570); conditions: HEK293T SILAC ABPP, NHU5 probe, LC-MS/MS ratio; PPME1; at 5 µM; active compounds read low
[5] = tested on: ESD; conditions: HEK293T SILAC ABPP, NHU5 probe, LC-MS/MS ratio, at 5 µM, active compounds read low
[6] = tested on: PNPLA8; conditions: HEK293T SILAC ABPP, NHU5 probe, LC-MS/MS ratio, at 5 µM, active compounds read low
[7] = target: Dipeptidyl peptidase 9 (Homo sapiens) (UniProt Q86TI2); conditions: HEK293T SILAC ABPP, NHU5 probe, LC-MS/MS ratio; DPP9; at 5 µM; active compounds read low
[8] = tested on: PREP; conditions: HEK293T SILAC ABPP, NHU5 probe, LC-MS/MS ratio, at 5 µM, active compounds read low
[9] = target: Acylamino-acid-releasing enzyme (Homo sapiens) (UniProt P13798); conditions: HEK293T SILAC ABPP, NHU5 probe, LC-MS/MS ratio; APEH; at 5 µM; active compounds read low
[10] = tested on: TPP2; conditions: HEK293T SILAC ABPP, NHU5 probe, LC-MS/MS ratio, at 5 µM, active compounds read low
[11] = tested on: ABHD6; conditions: HEK293T SILAC ABPP, NHU5 probe, LC-MS/MS ratio, at 5 µM, active compounds read low
[12] = tested on: PLA2G4A; conditions: HEK293T SILAC ABPP, NHU5 probe, LC-MS/MS ratio, at 5 µM, active compounds read low
[13] = tested on: ABHD10; conditions: HEK293T SILAC ABPP, NHU5 probe, LC-MS/MS ratio, at 5 µM, active compounds read low
[14] = tested on: CTSA; conditions: HEK293T SILAC ABPP, NHU5 probe, LC-MS/MS ratio, at 5 µM, active compounds read low
[15] = tested on: DDHD1; conditions: HEK293T SILAC ABPP, NHU5 probe, LC-MS/MS ratio, at 5 µM, active compounds read low
[16] = target: Fatty acid synthase (Homo sapiens) (UniProt P49327); conditions: HEK293T SILAC ABPP, NHU5 probe, LC-MS/MS ratio; FASN; at 5 µM; active compounds read low
[17] = target: Acyl-protein thioesterase 1 (Homo sapiens) (UniProt O75608); conditions: HEK293T SILAC ABPP, NHU5 probe, LC-MS/MS ratio; LYPLA1; at 5 µM; active compounds read low
[18] = tested on: PNPLA6; conditions: HEK293T SILAC ABPP, NHU5 probe, LC-MS/MS ratio, at 5 µM, active compounds read low

Acyl-protein thioesterase 2 (Homo sapiens), sequence (O95372 whole entry, looked up): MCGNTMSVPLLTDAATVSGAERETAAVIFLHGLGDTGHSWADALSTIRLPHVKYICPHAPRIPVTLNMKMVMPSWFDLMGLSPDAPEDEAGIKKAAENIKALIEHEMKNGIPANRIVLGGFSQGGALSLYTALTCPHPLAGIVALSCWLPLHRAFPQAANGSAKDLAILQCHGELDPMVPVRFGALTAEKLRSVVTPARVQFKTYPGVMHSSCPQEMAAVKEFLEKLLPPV
Fatty acid synthase (Homo sapiens), sequence (P49327 whole entry, looked up): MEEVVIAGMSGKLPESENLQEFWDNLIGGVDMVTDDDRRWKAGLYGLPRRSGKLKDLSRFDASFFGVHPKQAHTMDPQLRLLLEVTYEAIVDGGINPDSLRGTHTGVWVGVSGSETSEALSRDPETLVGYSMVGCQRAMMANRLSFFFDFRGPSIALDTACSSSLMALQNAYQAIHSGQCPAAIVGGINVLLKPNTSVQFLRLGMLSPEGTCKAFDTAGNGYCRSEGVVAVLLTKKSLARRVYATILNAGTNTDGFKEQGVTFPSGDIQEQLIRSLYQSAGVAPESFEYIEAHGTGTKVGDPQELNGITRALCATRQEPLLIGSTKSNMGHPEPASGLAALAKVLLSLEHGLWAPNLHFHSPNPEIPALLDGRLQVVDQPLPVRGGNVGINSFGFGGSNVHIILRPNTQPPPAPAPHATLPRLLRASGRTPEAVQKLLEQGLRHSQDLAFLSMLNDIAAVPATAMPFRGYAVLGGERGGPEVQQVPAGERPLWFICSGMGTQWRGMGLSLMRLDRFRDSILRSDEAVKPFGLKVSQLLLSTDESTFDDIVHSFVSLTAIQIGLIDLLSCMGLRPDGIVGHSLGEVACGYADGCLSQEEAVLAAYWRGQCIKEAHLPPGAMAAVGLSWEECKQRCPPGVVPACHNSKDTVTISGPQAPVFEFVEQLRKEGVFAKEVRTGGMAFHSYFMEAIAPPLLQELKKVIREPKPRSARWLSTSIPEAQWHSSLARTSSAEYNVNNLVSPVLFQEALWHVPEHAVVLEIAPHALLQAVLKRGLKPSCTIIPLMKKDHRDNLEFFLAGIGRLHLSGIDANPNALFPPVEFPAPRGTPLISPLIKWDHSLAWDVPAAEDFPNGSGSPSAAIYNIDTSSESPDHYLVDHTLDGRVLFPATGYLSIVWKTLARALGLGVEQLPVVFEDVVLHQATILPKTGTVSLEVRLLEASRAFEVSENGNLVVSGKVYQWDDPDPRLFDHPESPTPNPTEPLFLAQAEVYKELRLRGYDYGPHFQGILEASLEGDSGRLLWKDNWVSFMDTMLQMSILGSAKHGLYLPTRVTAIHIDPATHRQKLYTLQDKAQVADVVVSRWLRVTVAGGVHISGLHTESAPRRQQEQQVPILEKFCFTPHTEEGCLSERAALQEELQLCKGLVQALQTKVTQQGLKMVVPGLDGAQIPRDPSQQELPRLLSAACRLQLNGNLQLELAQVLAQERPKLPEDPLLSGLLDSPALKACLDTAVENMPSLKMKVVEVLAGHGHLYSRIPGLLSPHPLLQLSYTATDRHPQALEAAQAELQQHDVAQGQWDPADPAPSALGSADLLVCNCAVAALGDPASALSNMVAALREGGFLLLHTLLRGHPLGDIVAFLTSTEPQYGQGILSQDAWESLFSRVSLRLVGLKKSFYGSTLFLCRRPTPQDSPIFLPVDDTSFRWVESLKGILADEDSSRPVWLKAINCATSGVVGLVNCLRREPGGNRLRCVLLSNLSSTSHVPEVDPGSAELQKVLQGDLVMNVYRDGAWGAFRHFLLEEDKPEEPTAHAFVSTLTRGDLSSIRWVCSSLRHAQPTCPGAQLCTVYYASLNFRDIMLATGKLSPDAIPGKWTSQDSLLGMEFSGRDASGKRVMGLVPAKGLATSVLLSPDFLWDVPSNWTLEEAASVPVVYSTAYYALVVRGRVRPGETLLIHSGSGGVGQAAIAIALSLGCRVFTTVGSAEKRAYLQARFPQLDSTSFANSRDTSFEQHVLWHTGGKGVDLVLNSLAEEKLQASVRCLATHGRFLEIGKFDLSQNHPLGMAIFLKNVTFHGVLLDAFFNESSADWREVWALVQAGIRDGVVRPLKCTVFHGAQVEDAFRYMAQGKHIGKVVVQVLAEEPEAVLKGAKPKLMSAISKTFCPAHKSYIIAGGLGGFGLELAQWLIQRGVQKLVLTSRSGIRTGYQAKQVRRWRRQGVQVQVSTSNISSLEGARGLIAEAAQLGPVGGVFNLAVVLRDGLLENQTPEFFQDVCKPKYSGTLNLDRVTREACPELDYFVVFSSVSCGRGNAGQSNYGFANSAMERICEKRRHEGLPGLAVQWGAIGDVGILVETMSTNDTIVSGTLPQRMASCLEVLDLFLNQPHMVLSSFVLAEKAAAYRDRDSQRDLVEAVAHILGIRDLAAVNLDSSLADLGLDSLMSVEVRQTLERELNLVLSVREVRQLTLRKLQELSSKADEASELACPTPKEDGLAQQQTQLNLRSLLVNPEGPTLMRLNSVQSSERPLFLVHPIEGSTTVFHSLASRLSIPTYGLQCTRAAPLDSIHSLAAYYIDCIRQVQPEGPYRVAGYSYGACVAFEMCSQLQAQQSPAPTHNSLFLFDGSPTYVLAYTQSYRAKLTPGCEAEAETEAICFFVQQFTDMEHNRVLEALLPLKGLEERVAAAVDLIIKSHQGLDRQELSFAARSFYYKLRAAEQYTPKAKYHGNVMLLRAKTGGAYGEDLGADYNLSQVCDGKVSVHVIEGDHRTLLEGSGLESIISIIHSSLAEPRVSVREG
Acyl-protein thioesterase 1 (Homo sapiens), sequence (O75608 whole entry, looked up): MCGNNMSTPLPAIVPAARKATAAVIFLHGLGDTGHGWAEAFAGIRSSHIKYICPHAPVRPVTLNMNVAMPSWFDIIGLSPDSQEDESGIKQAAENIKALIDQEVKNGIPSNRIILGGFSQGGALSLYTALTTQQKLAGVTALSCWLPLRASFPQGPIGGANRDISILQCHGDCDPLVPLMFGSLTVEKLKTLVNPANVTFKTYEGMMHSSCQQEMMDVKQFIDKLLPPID
Dipeptidyl peptidase 9 (Homo sapiens), sequence (Q86TI2 whole entry, looked up): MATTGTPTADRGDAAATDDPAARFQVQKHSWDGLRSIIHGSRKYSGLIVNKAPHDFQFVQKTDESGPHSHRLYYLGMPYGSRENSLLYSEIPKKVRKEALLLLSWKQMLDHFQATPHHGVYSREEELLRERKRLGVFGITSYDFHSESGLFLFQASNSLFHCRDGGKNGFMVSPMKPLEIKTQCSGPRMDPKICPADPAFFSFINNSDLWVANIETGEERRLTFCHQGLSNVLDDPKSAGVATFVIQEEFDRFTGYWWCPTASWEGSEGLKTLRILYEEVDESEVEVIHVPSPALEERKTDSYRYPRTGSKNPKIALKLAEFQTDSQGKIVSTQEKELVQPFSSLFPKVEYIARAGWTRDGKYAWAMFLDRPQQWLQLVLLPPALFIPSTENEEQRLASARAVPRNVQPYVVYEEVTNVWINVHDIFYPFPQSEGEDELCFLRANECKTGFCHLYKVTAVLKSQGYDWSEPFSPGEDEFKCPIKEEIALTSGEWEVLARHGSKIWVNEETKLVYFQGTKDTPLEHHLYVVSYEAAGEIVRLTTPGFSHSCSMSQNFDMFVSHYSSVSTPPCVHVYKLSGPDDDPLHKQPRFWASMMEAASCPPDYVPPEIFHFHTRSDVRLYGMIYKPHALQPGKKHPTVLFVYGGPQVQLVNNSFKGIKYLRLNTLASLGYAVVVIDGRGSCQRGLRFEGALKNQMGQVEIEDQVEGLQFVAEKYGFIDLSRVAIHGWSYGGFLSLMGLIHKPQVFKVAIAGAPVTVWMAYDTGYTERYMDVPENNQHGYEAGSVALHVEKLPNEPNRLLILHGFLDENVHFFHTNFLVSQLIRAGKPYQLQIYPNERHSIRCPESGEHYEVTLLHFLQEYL
Protein phosphatase methylesterase 1 (Homo sapiens), sequence (Q9Y570 whole entry, looked up): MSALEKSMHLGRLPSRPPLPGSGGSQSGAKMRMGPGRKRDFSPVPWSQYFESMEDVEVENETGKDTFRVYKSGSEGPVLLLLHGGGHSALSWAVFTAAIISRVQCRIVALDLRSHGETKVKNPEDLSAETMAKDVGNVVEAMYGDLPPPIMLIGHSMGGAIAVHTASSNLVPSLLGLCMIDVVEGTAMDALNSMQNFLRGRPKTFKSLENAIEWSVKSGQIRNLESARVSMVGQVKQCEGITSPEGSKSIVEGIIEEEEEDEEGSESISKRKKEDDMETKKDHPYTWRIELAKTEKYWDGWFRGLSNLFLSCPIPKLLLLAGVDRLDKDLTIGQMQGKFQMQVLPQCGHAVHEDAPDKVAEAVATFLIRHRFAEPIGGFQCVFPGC
Acylamino-acid-releasing enzyme (Homo sapiens), sequence (P13798 whole entry, looked up): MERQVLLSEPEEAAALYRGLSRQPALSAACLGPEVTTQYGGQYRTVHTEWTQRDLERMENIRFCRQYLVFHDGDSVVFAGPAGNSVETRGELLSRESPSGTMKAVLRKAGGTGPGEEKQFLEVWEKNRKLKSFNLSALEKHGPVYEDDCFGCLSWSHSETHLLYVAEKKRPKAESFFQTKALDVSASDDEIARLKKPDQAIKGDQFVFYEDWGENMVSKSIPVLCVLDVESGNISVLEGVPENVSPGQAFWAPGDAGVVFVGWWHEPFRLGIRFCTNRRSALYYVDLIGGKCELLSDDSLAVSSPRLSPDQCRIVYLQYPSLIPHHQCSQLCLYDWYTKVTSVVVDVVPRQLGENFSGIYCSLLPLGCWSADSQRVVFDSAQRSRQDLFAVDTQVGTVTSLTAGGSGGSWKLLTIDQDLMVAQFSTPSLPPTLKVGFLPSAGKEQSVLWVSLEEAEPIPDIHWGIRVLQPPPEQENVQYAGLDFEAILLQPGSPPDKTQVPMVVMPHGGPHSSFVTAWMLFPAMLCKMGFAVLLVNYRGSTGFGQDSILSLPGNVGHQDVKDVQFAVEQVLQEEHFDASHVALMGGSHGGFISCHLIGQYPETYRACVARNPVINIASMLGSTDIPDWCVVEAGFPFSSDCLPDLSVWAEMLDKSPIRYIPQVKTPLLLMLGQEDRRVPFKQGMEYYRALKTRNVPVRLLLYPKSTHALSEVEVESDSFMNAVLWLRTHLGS

- SILAC ratio (compound/DMSO) [1]: 1.33 (inactive)
- SILAC ratio (compound/DMSO) [2]: 1.1 (inactive)
- SILAC ratio (compound/DMSO) [3]: 1.43 (inactive)
- SILAC ratio (compound/DMSO) [4]: 1.08 (inactive)
- SILAC ratio (compound/DMSO) [5]: 1.08 (inactive)
- SILAC ratio (compound/DMSO) [6]: 0.97 (inactive)
- SILAC ratio (compound/DMSO) [7]: 1.25 (inactive)
- SILAC ratio (compound/DMSO) [8]: 1.1 (inactive)
- SILAC ratio (compound/DMSO) [9]: 1.22 (inactive)
- SILAC ratio (compound/DMSO) [10]: 1.1 (inactive)
- SILAC ratio (compound/DMSO) [11]: 1.25 (inactive)
- SILAC ratio (compound/DMSO) [12]: 1.43 (inactive)
- SILAC ratio (compound/DMSO) [13]: 1.1 (inactive)
- SILAC ratio (compound/DMSO) [14]: 1.17 (inactive)
- SILAC ratio (compound/DMSO) [15]: 1.06 (inactive)
- SILAC ratio (compound/DMSO) [16]: 1.14 (inactive)
- SILAC ratio (compound/DMSO) [17]: 0.21
- SILAC ratio (compound/DMSO) [18]: 1.2 (inactive)
SMILES: O=C(CN1CCN(C(=O)c2ccco2)CC1)Nc1cc(C(F)(F)F)ccc1Cl
